Data reported in patent WO2015077660A1, “Enzyme reactor system enabling enhanced enzymatic digestion, analyte solubility and improved mass spectrometric compatibility” (priority 2013, dated 2014).

Key:
porcine trypsin = tested on: T1, porcine trypsin; experiment: Insulin digestion by trypsin in solution, buffer screening (Table 9); format: biochemical; conditions: 37°C, 18 h
T1 construct: purchased

trypsin = experiment: Insulin digestion in immobilized enzyme reactor, buffer screening (Table 7); format: biochemical, porcine; conditions: IMER, 70°C, 60 s

## CO [MeOH, methanol]
Porcine trypsin; 5%
  Digested: 1415794
  Peptide: 576911
  Undigested: 5318134
Porcine trypsin; 10%
  Digested: 216568
  Peptide: 88569
  Undigested: 4800365
Porcine trypsin; 15%
  Digested: 1700395
  Peptide: 666807
  Undigested: 4218905
Porcine trypsin; 20%
  Digested: 1986863
  Peptide: 756073
  Undigested: 3394642
trypsin; 5%
  Digested: 1511720
  Peptide: 627591
  Undigested: 2902781
trypsin; 10%
  Digested: 1001203
  Peptide: 417070
  Undigested: 3946896
trypsin; 15%
  Digested: 675569
  Peptide: 277958
  Undigested: 5012221
trypsin; 20%
  Digested: 518131
  Peptide: 213935
  Undigested: 5268985

## [Cl-].[Na+] [NaCl]
Porcine trypsin; 0.1M
  Digested: 1527956
  Peptide: 648564
  Undigested: 3295178
Porcine trypsin; 0.25M
  Digested: 1178089
  Peptide: 484049
  Undigested: 3432057
Porcine trypsin; 0.5M
  Digested: 884946
  Peptide: 350436
  Undigested: 4517343
Porcine trypsin; 1M
  Digested: 670170
  Peptide: 249834
  Undigested: 4981512
Porcine trypsin; 2M
  Digested: 378641
  Peptide: 111600
  Undigested: 4745627
trypsin; 0.1M
  Digested: 2262987
  Peptide: 925368
  Undigested: 1557233
trypsin; 0.25M
  Digested: 2119184
  Peptide: 866812
  Undigested: 2102900
trypsin; 0.5M
  Digested: 2146822
  Peptide: 862093
  Undigested: 1679944
trypsin; 1M
  Digested: 2363025
  Peptide: 944511
  Undigested: 1205692
trypsin; 2M
  Digested: 2660004
  Peptide: 966823
  Undigested: 332026

## CC(C)O [IPA, isopropyl alcohol]
Porcine trypsin; 5%
  Digested: 1024085
  Peptide: 407876
  Undigested: 3528233
Porcine trypsin; 10%
  Digested: 1133300
  Peptide: 418703
  Undigested: 3935383
Porcine trypsin; 15%
  Digested: 906822
  Peptide: 322103
  Undigested: 4509078
Porcine trypsin; 20%
  Digested: 954036
  Peptide: 347874
  Undigested: 4992140
trypsin; 5%
  Digested: 696091
  Peptide: 291902
  Undigested: 4427643
trypsin; 10%
  Digested: 208098
  Peptide: 86945
  Undigested: 5774155
trypsin; 15%
  Digested: 126129
  Peptide: 52332
  Undigested: 5930073
trypsin; 20%
  Digested: 135325
  Peptide: 55155
  Undigested: 5148164

## C[C@H](CCC(=O)[O-])[C@H]1CC[C@H]2[C@@H]3CC[C@@H]4C[C@H](O)CC[C@]4(C)[C@H]3C[C@H](O)[C@]12C.[Na+] [SDC, sodium deoxycholate]
Porcine trypsin; 0.1%
  Digested: 1284656
  Peptide: 5961
  Undigested: 3123245
Porcine trypsin; 0.2%
  Digested: 12332
  Peptide: 480241
  Undigested: 29962
Porcine trypsin; 0.5%
  Digested: 114517
  Peptide: 361200
  Undigested: 499326
Porcine trypsin; 1%
  Digested: 124131
  Peptide: 239833
  Undigested: 1149062
trypsin; 0.1%
  Digested: 296346
  Peptide: 101770
  Undigested: 4216641
trypsin; 0.2%
  Digested: 94589
  Peptide: 30902
  Undigested: 5010947
trypsin; 0.5%
  Digested: 12088
  Peptide: 1351
  Undigested: 1648635
trypsin; 1%
  Digested: 8134
  Peptide: 1275
  Undigested: 284843

## C[S+](C)[O-] [DMSO, dimethylsulfoxide]
Porcine trypsin; 5%
  Digested: 1193067
  Peptide: 499051
  Undigested: 3219771
Porcine trypsin; 10%
  Digested: 1185116
  Peptide: 442885
  Undigested: 3803031
Porcine trypsin; 15%
  Digested: 1233021
  Peptide: 481657
  Undigested: 4423224
Porcine trypsin; 20%
  Digested: 1215388
  Peptide: 467559
  Undigested: 4523186
trypsin; 5%
  Digested: 1804007
  Peptide: 719810
  Undigested: 2280353
trypsin; 10%
  Digested: 1483343
  Peptide: 618353
  Undigested: 2811668
trypsin; 15%
  Digested: 1058609
  Peptide: 437967
  Undigested: 3394971
trypsin; 20%
  Digested: 722730
  Peptide: 296540
  Undigested: 3631216

## NC(N)=O [Urea]
Porcine trypsin; 0.5M
  Digested: 1220686
  Peptide: 538728
  Undigested: 3763696
Porcine trypsin; 1M
  Digested: 1145096
  Peptide: 511139
  Undigested: 2972094
Porcine trypsin; 2M
  Digested: 1106227
  Peptide: 490181
  Undigested: 3034093
Porcine trypsin; 4M
  Digested: 860501
  Peptide: 389932
  Undigested: 2877527
Porcine trypsin; 6M
  Digested: 529552
  Peptide: 301136
  Undigested: 3250299
Porcine trypsin; 8M
  Digested: 156492
  Peptide: 69027
  Undigested: 2197015
trypsin; 0.5M
  Digested: 1816572
  Peptide: 715848
  Undigested: 2285541
trypsin; 1M
  Digested: 1448998
  Peptide: 555954
  Undigested: 2812910
trypsin; 2M
  Digested: 905391
  Peptide: 349854
  Undigested: 3812799
trypsin; 4M
  Digested: 285873
  Peptide: 104200
  Undigested: 4609299
trypsin; 6M
  Digested: 139668
  Peptide: 49088
  Undigested: 4675789
trypsin; 8M
  Digested: 43865
  Peptide: 13979
  Undigested: 4151508

## OCC(F)(F)F [TFE]
Porcine trypsin; 5%
  Digested: 710737
  Peptide: 271046
  Undigested: 4417966
Porcine trypsin; 10%
  Digested: 512715
  Peptide: 201962
  Undigested: 4499811
Porcine trypsin; 15%
  Digested: 571716
  Peptide: 224520
  Undigested: 4785656
Porcine trypsin; 20%
  Digested: 661078
  Peptide: 253234
  Undigested: 4907160
trypsin; 5%
  Digested: 513982
  Peptide: 208344
  Undigested: 4502764
trypsin; 10%
  Digested: 95904
  Peptide: 39996
  Undigested: 5112793
trypsin; 15%
  Digested: 40955
  Peptide: 18047
  Undigested: 5055881
trypsin; 20%
  Digested: 26014
  Peptide: 9756
  Undigested: 5626809
